Test results taken from ChEMBL document CHEMBL1130572, “Synthesis and anti HCMV activity of 3,4-disubstituted tetrahydrofuran derived nucleosides and nucleotides: A tethered series of PME derivatives” (Bioorg Med Chem Lett, 1997).
Values after ≈ are worked out from the molar mass of the structure shown. Active and inactive are the calls of the source. The rule behind the calls is not given here.

How the values were obtained:
[1] = system: F2002 cell line; experiment: Compound was tested in vitro for cytotoxic activity against HCMV (Human cytomegalovirus) in Flow 2002 cells; type: functional
[2] = system: F2002 cell line; experiment: Compound was tested in vitro for inhibitory activity against HCMV (Human cytomegalovirus) in Flow 2002 cells; type: functional, cell-based
[3] = system: WI-38; experiment: Compound was tested in vitro for inhibitory activity against HCMV (Human cytomegalovirus) in WI38 cells; type: functional, cell-based
[4] = system: WI-38; experiment: Compound was tested in vitro for cytotoxic activity against HCMV (Human cytomegalovirus) in WI38 cells; type: functional
[5] = system: Human betaherpesvirus 5; experiment: Compound was tested in vitro for inhibitory activity against HCMV (Human cytomegalovirus); type: functional, organism-based
[6] = system: Human betaherpesvirus 5; experiment: Compound was tested in vitro for cytotoxic activity against HCMV (Human cytomegalovirus); type: functional
[7] = system: Human betaherpesvirus 5; experiment: Compound (up to 100 ug/mL) was tested in vitro for inhibitory activity against HCMV (Human cytomegalovirus); Inactive; type: functional, organism-based
[8] = Compound was tested for selectivity index of […]; type: functional

Structure (SMILES)	IC50 [2] [µg/mL]	CC50 [1] [µg/mL]	also measured
N.Nc1ccn(C2COCC2OCP(=O)(O)O)c(=O)n1 (stereo not drawn)	–	–	IC50 [3]: > 100 µg/mL; CC50 [4]: > 100 µg/mL
Nc1nc2c(ncn2COC(CO)CO)c(=O)[nH]1 [GANCICLOVIR]	–	–	IC50 [5]: 0.1 µg/mL (≈ 0.392 µM); CC50 [6]: > 100 µg/mL
Nc1ncnc2c1ncn2[C@@H]1COCC1OCP(=O)(O)O (stereo partly drawn)	–	–	Activity [7]: inactive
Nc1ncnc2c1ncn2C1COCC1OCP(=O)(O)O (stereo not drawn)	–	–	Activity [7]: inactive
N.Nc1ccn([C@@H]2COCC2OCP(=O)(O)O)c(=O)n1 (stereo partly drawn)	–	–	IC50 [3]: > 50 µg/mL; CC50 [4]: > 100 µg/mL
Nc1ncnc2c1ncn2C1COCC1O (stereo not drawn)	–	–	IC50 [3]: > 50 µg/mL; CC50 [4]: 100 µg/mL (≈ 452 µM)

Continued, in another order:

IC50 [2] [µg/mL]	Structure (SMILES)	CC50 [1] [µg/mL]	also measured
> 100	Nc1ccn(C2COCC2O)c(=O)n1 (stereo not drawn)	100 (≈ 507 µM)	–
> 100	O=c1ccn([C@@H]2COCC2OCP(=O)(O)O)c(=O)[nH]1 (stereo partly drawn)	100 (≈ 342 µM)	–
> 100	O=c1ccn([C@@H]2COCC2O)c(=O)[nH]1 (stereo partly drawn)	> 100	–
> 100	Nc1ncnc2c1ncn2[C@@H]1COCC1O (stereo partly drawn)	> 100	–
> 100	O=c1ccn(C2COCC2OCP(=O)(O)O)c(=O)[nH]1 (stereo not drawn)	> 100	–
3 (≈ 15.2 µM)	Nc1ccn([C@@H]2COCC2O)c(=O)n1 (stereo partly drawn)	100 (≈ 507 µM)	Selectivity index [8]: 33
